This is an account of results in ChEMBL document CHEMBL1201862, “PubChem BioAssay data set” (2004).

Some test systems named below: A498; NCI-H226; SNB-19; UACC-257; 786-0; U-251; SNB-75; SK-MEL-28; TK-10; MOLT-4; SF-295; UO-31; SK-MEL-5; COLO 205; CAKI-1.
Holding throughout (assay): NCI-60 cell line screen, 48 h

The structures appear in SMILES notation.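 How tested: cells in 96-well plates exposed to compound for 48 hours at five concentrations. The concentration for 50% growth inhibition is given as GI50.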 The source made the active and inactive calls. No stated cut-off is given here; in the data, active = GI50 up to about 1.1 µM and inactive = higher.

On to `N#CC1(Cc2ccccc2Cl)c2ccccc2C=CN1C(=O)c1ccccc1` (configuration not stated), for which the GI50 in the assay on A498 is > 100 µM (inactive); in the assay with NCI-H226, > 100 µM (inactive); in the assay on SNB-19, > 100 µM (inactive); in the assay on UACC-257, 78.7 µM (inactive); in the assay with 786-0 it was > 100 µM (inactive); with U-251, 48.9 µM (inactive). The GI50 in the assay with SNB-75 was > 100 µM (inactive); with SK-MEL-28, 54.8 µM (inactive); in the assay with TK-10, 46.8 µM (inactive); with MOLT-4, 28.4 µM (inactive); in the assay with SF-295 it was 81.8 µM (inactive); in the assay on UO-31, 51.9 µM (inactive). Moreover, the GI50 is 47.4 µM (inactive) in the assay with SK-MEL-5 and > 100 µM (inactive) in the assay on COLO 205.
As for `FC(F)(F)C1(Cl)C(c2ccccc2)=C1c1ccccc1`, the GI50 in the assay with NCI-H226 is 15.5 µM (inactive); with SNB-19, 17.9 µM (inactive); in the assay with UACC-257, 14 µM (inactive); in the assay on 786-0, 17 µM (inactive); in the assay on U-251, 14.7 µM (inactive); in the assay with SNB-75 it was > 10 µM (inactive). Besides, the GI50 with SK-MEL-28 was 14.9 µM (inactive); in the assay with TK-10 it was 20.9 µM (inactive); with MOLT-4, 4.01 µM (inactive); with SF-295 it was 14.9 µM (inactive); in the assay with CAKI-1, 12.6 µM (inactive); in the assay on UO-31, 17.9 µM (inactive). The GI50 in the assay on SK-MEL-5 was 11.7 µM (inactive); in the assay on COLO 205 it was 16.6 µM (inactive).
With `O=C1SC(c2ccccc2)(c2ccccc2)c2ccccc21`, the GI50 in the assay on NCI-H226, with SNB-19, in the assay with UACC-257, in the assay on 786-0, in the assay on U-251 and in the assay on SNB-75 was > 100 µM (inactive) in each case. The GI50 was > 100 µM (inactive) in the assay with SK-MEL-28; 88.3 µM (inactive) with TK-10; 82.8 µM (inactive) in the assay on MOLT-4; > 100 µM (inactive) in the assay with SF-295; > 100 µM (inactive) in the assay on CAKI-1; 56.2 µM (inactive) in the assay on UO-31. In addition, the GI50 was 46.3 µM (inactive) in the assay with SK-MEL-5 and > 100 µM (inactive) with COLO 205.
As for `[N-]=[N+]=NC1(c2ccccc2)C(=O)C(Cl)=C(c2ccccc2)N(c2ccccc2)C1=O` (configuration not stated), the GI50 in the assay on A498, in the assay on SNB-19, in the assay with UACC-257, in the assay on 786-0, in the assay with U-251 and in the assay with SNB-75 was > 100 µM (inactive) in each case. The GI50 in the assay on SK-MEL-28 is > 100 µM (inactive); with TK-10, > 100 µM (inactive); in the assay on MOLT-4 it was 58.5 µM (inactive); with SF-295, > 100 µM (inactive); in the assay with CAKI-1 it was > 100 µM (inactive); in the assay with UO-31, 97.3 µM (inactive). In addition, the GI50 in the assay on SK-MEL-5 and in the assay on COLO 205 was > 100 µM (inactive) throughout.
As to `O=C(O)C(CS)NCc1c2ccccc2[n+]([O-])c2ccccc12` (configuration not stated), the GI50 in the assay on A498 was 68.7 µM (inactive); in the assay on NCI-H226 it was 39.9 µM (inactive); with SNB-19, 38 µM (inactive); in the assay with UACC-257, > 100 µM (inactive); in the assay with 786-0 it was 37.2 µM (inactive); in the assay on U-251, 45.4 µM (inactive). The GI50 in the assay with SNB-75 was 24 µM (inactive); in the assay on SK-MEL-28, 35.2 µM (inactive); in the assay on TK-10 it was 95.1 µM (inactive); in the assay on MOLT-4 it was 13.8 µM (inactive); in the assay on SF-295, 58.1 µM (inactive); in the assay on CAKI-1, 83.6 µM (inactive). Moreover, the GI50 with UO-31 was 17.5 µM (inactive); in the assay with SK-MEL-5 it was 30.7 µM (inactive); in the assay on COLO 205 it was 78.3 µM (inactive).
Take `CC(C)(C)NNC(=O)CCn1[nH]c(=O)c(Cl)c(Cl)c1=O`: the GI50 with A498 was 10.7 µM (inactive); in the assay on NCI-H226 it was > 100 µM (inactive); in the assay with SNB-19, > 100 µM (inactive); in the assay with UACC-257 it was > 100 µM (inactive); with 786-0 it was > 100 µM (inactive); in the assay with U-251, > 100 µM (inactive). The GI50 with SNB-75, in the assay with SK-MEL-28, in the assay with TK-10, in the assay with MOLT-4, with SF-295 and with CAKI-1 was > 100 µM (inactive) throughout. In addition, the GI50 with UO-31 and with COLO 205 was > 100 µM (inactive) each time.
On to `CC(C)OP(=O)(OC(C)C)/C(=N/Nc1ccc([N+](=O)[O-])cc1)NNC(=O)c1ccccc1`, for which the GI50 with NCI-H226 is 19 µM (inactive); in the assay on SNB-19, 73.8 µM (inactive); with UACC-257, 37.3 µM (inactive); in the assay on 786-0 it was > 100 µM (inactive); in the assay with U-251, 26.1 µM (inactive); in the assay on SNB-75 it was 73.5 µM (inactive). The GI50 in the assay on SK-MEL-28 was 40.6 µM (inactive); in the assay on TK-10 it was > 100 µM (inactive); in the assay with MOLT-4 it was 17.2 µM (inactive); in the assay on CAKI-1, 76.6 µM (inactive); in the assay with UO-31, 41.5 µM (inactive); in the assay with SK-MEL-5 it was 17.4 µM (inactive). In the assay on COLO 205, the GI50 is 36.1 µM (inactive).
`Cc1nc(=O)[nH]c2[nH][nH]c(=O)c12`: the GI50 with NCI-H226, in the assay on 786-0, with U-251, in the assay on SK-MEL-28, in the assay with TK-10 and in the assay with MOLT-4 was > 100 µM (inactive) in each case. Further, the GI50 with SF-295, in the assay on CAKI-1 and with COLO 205 was > 100 µM (inactive) each time.
`COc1cc2c(cc1OC)-c1c3cc(O)ccc3nn[n+]1CC2`: the GI50 in the assay with NCI-H226, with SNB-19, in the assay with 786-0, in the assay with U-251, in the assay with SNB-75 and with SK-MEL-28 was > 100 µM (inactive) each time. Also, the GI50 with TK-10, in the assay on MOLT-4, in the assay with SF-295, in the assay on SK-MEL-5 and in the assay on COLO 205 was > 100 µM (inactive) each time.
For `CCOC(=O)/C(=C/c1ccc(OC)cc1)N(CC)CC`, the GI50 is 24.5 µM (inactive) in the assay on A498; > 100 µM (inactive) with NCI-H226; > 100 µM (inactive) in the assay on SNB-19; > 100 µM (inactive) in the assay on UACC-257; > 100 µM (inactive) with 786-0; > 100 µM (inactive) in the assay on U-251. For the same compound, the GI50 in the assay with SK-MEL-28, with TK-10, in the assay with MOLT-4, in the assay on SF-295, in the assay with CAKI-1 and with UO-31 was > 100 µM (inactive) throughout. Besides, the GI50 in the assay on SK-MEL-5 and in the assay on COLO 205 was > 100 µM (inactive) in each case.
For the compound `Cc1ccc(S(=O)(=O)c2ccccn2)cc1`, the GI50 with A498, with NCI-H226, with SNB-19, in the assay on UACC-257, in the assay on 786-0 and in the assay on U-251 was > 100 µM (inactive) throughout. Moreover, the GI50 is 90.8 µM (inactive) in the assay with SNB-75; > 100 µM (inactive) in the assay with SK-MEL-28; > 100 µM (inactive) in the assay on TK-10; > 100 µM (inactive) with MOLT-4; > 100 µM (inactive) in the assay with SF-295; > 100 µM (inactive) with CAKI-1. In addition, the GI50 in the assay with UO-31, with SK-MEL-5 and with COLO 205 was > 100 µM (inactive) throughout.
On to `CC(=O)OC1(C#N)CC2OC1C1N=NN(C(=O)OC(C)(C)C)C21` (configuration not stated), for which the GI50 in the assay on A498 was > 100 µM (inactive); in the assay on NCI-H226, 3.76 µM (inactive); in the assay on SNB-19 it was > 100 µM (inactive); with UACC-257 it was 20.4 µM (inactive); in the assay on 786-0 it was > 100 µM (inactive); with U-251, > 100 µM (inactive). For the same compound, the GI50 with SNB-75 was 70.1 µM (inactive); with SK-MEL-28, 16.9 µM (inactive); in the assay on TK-10 it was > 100 µM (inactive); in the assay on MOLT-4 it was 34 µM (inactive); in the assay with SF-295, > 100 µM (inactive); in the assay with CAKI-1 it was > 31.6 µM (inactive). Moreover, the GI50 is > 100 µM (inactive) with UO-31, > 31.6 µM (inactive) with SK-MEL-5 and > 100 µM (inactive) in the assay on COLO 205.
In the case of `C=CC[P@]1(=O)O[C@H](c2ccccc2)[C@H](C)N1C`, the GI50 in the assay with A498, in the assay on NCI-H226, in the assay with SNB-19, in the assay on 786-0, in the assay on U-251 and in the assay on SNB-75 was > 100 µM (inactive) each time. For the same compound, the GI50 in the assay on SK-MEL-28, in the assay with TK-10, in the assay with MOLT-4, in the assay on SF-295, in the assay with UO-31 and in the assay with SK-MEL-5 was > 100 µM (inactive) each time.
`COC(=O)N/N=C(\C)C(CN(C)C)C(c1ccccc1)c1c(O)c2ccccc2oc1=O` (configuration not stated): the GI50 in the assay with A498, in the assay with NCI-H226, in the assay with SNB-19, in the assay with UACC-257, in the assay on 786-0 and with U-251 was > 100 µM (inactive) in each case. Also, the GI50 in the assay on SNB-75, in the assay with SK-MEL-28, in the assay with TK-10, in the assay with MOLT-4, in the assay on SF-295 and with CAKI-1 was > 100 µM (inactive) throughout. The GI50 in the assay on UO-31, in the assay with SK-MEL-5 and in the assay with COLO 205 was > 100 µM (inactive) throughout.
For the compound `COc1cc2c(c(OC)c1OC)-c1ccc(SC)c(=O)cc1[C@@H](NC(=O)c1ccc(OC(C)=O)cc1)CC2`, the GI50 in the assay with A498 is 0.0227 µM (active); in the assay with NCI-H226 it was 0.0231 µM (active); with UACC-257 it was 0.0349 µM (active); in the assay on 786-0, 0.0409 µM (active); in the assay with U-251, 0.0227 µM (active); with SNB-75, 0.0332 µM (active). In addition, the GI50 with SK-MEL-28 is 0.0553 µM (active); with TK-10, 0.0454 µM (active); in the assay on MOLT-4, 0.0409 µM (active); in the assay with SF-295, 0.0217 µM (active); in the assay on CAKI-1, 33.9 µM (inactive); in the assay on UO-31 it was 0.433 µM (active). Moreover, the GI50 with COLO 205 was 0.0194 µM (active).
